Test results published in the NIST ThermoML archive (doi:10.1021/je030136n).

Experiment: xn = mol fraction of the nth substance listed
Settings: Liquid, Pulse-echo method

CCCCCCC [heptane] + CCCO
Settings | speed of sound [m/s]
313.15 K, 100 kPa, x2 = 0.1008 | 1061
313.15 K, 100 kPa, x2 = 0.4992 | 1074.8
313.15 K, 30400 kPa, x2 = 0.1008 | 1267.9
313.15 K, 45590 kPa, x2 = 0.4992 | 1349.9
313.15 K, 60790 kPa, x2 = 0.3008 | 1416.4
313.15 K, 75990 kPa, x2 = 0.4992 | 1481.4
313.15 K, 75990 kPa, x2 = 0.7016 | 1486.3
313.15 K, 91190 kPa, x2 = 0.3008 | 1539.3
313.15 K, 91190 kPa, x2 = 0.4992 | 1539.3
313.15 K, 101320 kPa, x2 = 0.4992 | 1575.5
313.15 K, 111450 kPa, x2 = 0.3008 | 1611.5
313.15 K, 121580 kPa, x2 = 0.3008 | 1645.1
313.16 K, 30400 kPa, x2 = 0.7986 | 1293.2
313.16 K, 91190 kPa, x2 = 0.1008 | 1543.3
313.16 K, 101320 kPa, x2 = 0.3008 | 1576.2
313.16 K, 121580 kPa, x2 = 0.4992 | 1643.3
313.17 K, 100 kPa, x2 = 0.3008 | 1065
313.17 K, 30400 kPa, x2 = 0.3008 | 1268.1
313.17 K, 75990 kPa, x2 = 0.3008 | 1480.3
313.17 K, 111450 kPa, x2 = 0.4992 | 1610.1
313.17 K, 111450 kPa, x2 = 0.6027 | 1610
313.17 K, 121580 kPa, x2 = 0.6027 | 1642.9
313.19 K, 101320 kPa, x2 = 0.1008 | 1580.6
313.19 K, 111450 kPa, x2 = 0.1008 | 1616.3
313.19 K, 121580 kPa, x2 = 0.1008 | 1649.7
313.2 K, 111450 kPa, x2 = 0 | 1622
313.2 K, 111450 kPa, x2 = 0.7016 | 1611.6
313.21 K, 101320 kPa, x2 = 0 | 1586.2
313.22 K, 45590 kPa, x2 = 0.7016 | 1358.4
313.22 K, 121580 kPa, x2 = 0.7016 | 1643.9
313.23 K, 30400 kPa, x2 = 0.7016 | 1284.3
313.23 K, 60790 kPa, x2 = 0.7016 | 1425.1
313.24 K, 100 kPa, x2 = 0.7016 | 1095.2
318.08 K, 100 kPa, x2 = 0.7986 | 1090.8
318.09 K, 75990 kPa, x2 = 0 | 1475.5
318.09 K, 121580 kPa, x2 = 0.7016 | 1632.8
318.11 K, 101320 kPa, x2 = 0.7986 | 1569.1
318.12 K, 45590 kPa, x2 = 0.7986 | 1351.4
318.12 K, 60790 kPa, x2 = 0.4992 | 1404.4
318.13 K, 100 kPa, x2 = 0.4992 | 1054.3
318.13 K, 30400 kPa, x2 = 0.7986 | 1277.9
318.13 K, 45590 kPa, x2 = 0.4992 | 1334.8
318.13 K, 111450 kPa, x2 = 0.7986 | 1602.7
318.13 K, 121580 kPa, x2 = 0.4992 | 1631.5
318.14 K, 100 kPa, x2 = 0.7016 | 1076.2
318.14 K, 30400 kPa, x2 = 0.4992 | 1256.9
318.14 K, 75990 kPa, x2 = 0.7986 | 1478
318.14 K, 121580 kPa, x2 = 0.7986 | 1634.8
318.15 K, 30400 kPa, x2 = 0.7016 | 1268.9
318.15 K, 45590 kPa, x2 = 0.7016 | 1344.1
318.15 K, 60790 kPa, x2 = 0.6027 | 1406.9
318.15 K, 60790 kPa, x2 = 0.7016 | 1411.6
318.15 K, 60790 kPa, x2 = 0.7986 | 1417.5
318.15 K, 75990 kPa, x2 = 0.1008 | 1469.4
318.15 K, 91190 kPa, x2 = 0 | 1535.7
318.15 K, 111450 kPa, x2 = 0.4992 | 1598
318.16 K, 45590 kPa, x2 = 0.6027 | 1338.2
318.16 K, 91190 kPa, x2 = 0.7016 | 1530.2
318.16 K, 91190 kPa, x2 = 0.7986 | 1533.9
318.16 K, 101320 kPa, x2 = 0.4992 | 1563
318.16 K, 101320 kPa, x2 = 0.7016 | 1565.9
318.17 K, 45590 kPa, x2 = 0 | 1337.4
318.17 K, 60790 kPa, x2 = 0 | 1409.6
318.17 K, 60790 kPa, x2 = 0.1008 | 1403.9
318.17 K, 75990 kPa, x2 = 0.7016 | 1473.2
318.17 K, 91190 kPa, x2 = 0.3008 | 1526.1
318.17 K, 91190 kPa, x2 = 0.4992 | 1526.3
318.17 K, 101320 kPa, x2 = 0.1008 | 1567.7
318.17 K, 111450 kPa, x2 = 0.1008 | 1603.7
318.17 K, 111450 kPa, x2 = 0.3008 | 1599
318.17 K, 111450 kPa, x2 = 0.7016 | 1600
318.17 K, 121580 kPa, x2 = 0 | 1644.3
318.17 K, 121580 kPa, x2 = 0.1008 | 1637
318.17 K, 121580 kPa, x2 = 0.3008 | 1633
318.18 K, 100 kPa, x2 = 0 | 1044.5
318.18 K, 100 kPa, x2 = 0.1008 | 1039.7
318.18 K, 15200 kPa, x2 = 0 | 1163.4
318.18 K, 15200 kPa, x2 = 0.1008 | 1157.8
318.18 K, 30400 kPa, x2 = 0 | 1256.5
318.18 K, 75990 kPa, x2 = 0.3008 | 1466.5
318.18 K, 75990 kPa, x2 = 0.4992 | 1467.8
318.18 K, 101320 kPa, x2 = 0 | 1573.6
318.18 K, 101320 kPa, x2 = 0.3008 | 1563.3
318.18 K, 111450 kPa, x2 = 0 | 1609.8
318.18 K, 121580 kPa, x2 = 0.6027 | 1631.3
318.19 K, 30400 kPa, x2 = 0.3008 | 1251.4
318.19 K, 45590 kPa, x2 = 0.1008 | 1331.6
318.19 K, 45590 kPa, x2 = 0.3008 | 1330.8
318.19 K, 60790 kPa, x2 = 0.3008 | 1401.9
318.2 K, 100 kPa, x2 = 0.6027 | 1063.5
318.2 K, 30400 kPa, x2 = 0.1008 | 1250.7
318.2 K, 101320 kPa, x2 = 0.6027 | 1563.5
318.21 K, 100 kPa, x2 = 0.3008 | 1043.8
318.21 K, 91190 kPa, x2 = 0.6027 | 1527.2
318.23 K, 30400 kPa, x2 = 0.6027 | 1261.4
318.23 K, 111450 kPa, x2 = 0.6027 | 1598
318.27 K, 75990 kPa, x2 = 0.6027 | 1469.2
